Assay results as given in patent publication US20180370927A1, “MICROBIOCIDAL OXADIAZOLE DERIVATIVES” (SYNGENTA PARTICIPATIONS AG, priority 2015, published 2018).

Assays:
[1] = system: Puccinia recondita f. Sp. Tritici; assay: Puccinia recondita f. sp. tritici / wheat / leaf disc preventative (brown rust); format: in vivo; conditions: foliar, 200 ppm in the applied formulation, wheat leaf segments, preventative, assessed 7 to 9 days after application, read-out: disease control compared to untreated control leaf disks
Protocol: (§1) Leaf disks or leaf segments of various plant species are cut from plants grown in a greenhouse. The cut leaf disks or segments are placed in multiwell plates (24-well format) onto water agar. The leaf disks are sprayed with a test solution before (preventative) or after (curative) inoculation. Compounds to be tested are prepared as DMSO solutions (max. 10 mg/mL) which are diluted to the appropriate concentration with 0.025% Tween20 just before spraying. The inoculated leaf disks or segments are incubated under defined conditions (temperature, relative humidity, light, etc.) according to the respective test system. A single evaluation of disease level is carried out 3 to 14 days after inoculation, depending on the pathosystem. Percent disease control relative to the untreated check leaf disks or segments is then calculated.
Example 1: Fungicidal Activity Against Puccinia recondita f. Sp. Tritici/Wheat/Leaf Disc Preventative (Brown Rust)
Wheat leaf segments cv. Kanzler were placed on agar in multiwell plates (24-well format) and sprayed with the formulated test compound diluted in water. The leaf disks were inoculated with a spore suspension of the fungus 1 day after application. The inoculated leaf segments were incubated at 19° C. and 75% relative humidity (rh) under a light regime of 12 hours light/12 hours darkness in a climate cabinet and the activity of a compound was assessed as percent disease control compared to untreated when an appropriate level of disease damage appears in untreated check leaf segments (7 to 9 days after application).
(§2) The following compounds at 200 ppm in the applied formulation give at least 80% disease control in this test when compared to untreated control leaf disks under the same conditions, which show extensive disease development.

[2] = system: Puccinia recondita f. Sp. Tritici; assay: Puccinia recondita f. sp. tritici / wheat / leaf disc curative (brown rust); format: in vivo; conditions: foliar, 200 ppm in the applied formulation, wheat leaf segments, curative (applied 1 day after inoculation), assessed 6 to 8 days after application, read-out: disease control compared to untreated control leaf disks
Protocol: as §1
Example 2: Fungicidal Activity Against Puccinia recondita f. Sp. Tritici/Wheat/Leaf Disc Curative (Brown Rust)
Wheat leaf segments cv. Kanzler are placed on agar in multiwell plates (24-well format). The leaf segments are then inoculated with a spore suspension of the fungus. Plates were stored in darkness at 19° C. and 75% relative humidity. The formulated test compound diluted in water was applied 1 day after inoculation. The leaf segments were incubated at 19° C. and 75% relative humidity under a light regime of 12 hours light/12 hours darkness in a climate cabinet and the activity of a compound was assessed as percent disease control compared to untreated when an appropriate level of disease damage appears in untreated check leaf segments (6 to 8 days after application).
as §2

[3] = system: Glomerella lacenarium (Colletotrichum lacenarium); assay: Glomerella lacenarium (Colletotrichum lacenarium) liquid culture / cucumber / preventative (anthracnose); format: cell-based; conditions: 20 ppm in the applied formulation, liquid culture in PDB, 24° C., 3 to 4 days after application, read-out: disease control (inhibition of growth, photometric) compared to untreated control
Protocol: Mycelia fragments or conidia suspensions of a fungus prepared either freshly from liquid cultures of the fungus or from cryogenic storage, are directly mixed into nutrient broth. DMSO solutions of the test compound (max. 10 mg/ml) are diluted with 0.025% Tween20 by a factor of 50 and 10 μL of this solution is pipetted into a microtiter plate (96-well format). The nutrient broth containing the fungal spores/mycelia fragments is then added to give an end concentration of the tested compound. The test plates are incubated in the dark at 24° C. and 96% relative humidity. The inhibition of fungal growth is determined photometrically after 2 to 7 days, depending on the pathosystem, and percent antifungal activity relative to the untreated check is calculated.
Example 4: Fungicidal Activity Against Glomerella lacenarium (Colletotrichum lacenarium) Liquid Culture/Cucumber/Preventative (Anthracnose)
Conidia of the fungus from cryogenic storage are directly mixed into nutrient broth (PDB—potato dextrose broth). After placing a (DMSO) solution of test compound into a microtiter plate (96-well format), the nutrient broth containing the fungal spores is added. The test plates are incubated at 24° C. and the inhibition of growth is measured photometrically 3 to 4 days after application.
The following compounds at 20 ppm in the applied formulation give at least 80% disease control in this test when compared to untreated control under the same conditions, which show extensive disease development.

COC(=O)C(=O)N(Cc1ccc(-c2noc(C(F)(F)F)n2)cc1)OC [Compound 3.2, methyl 2-[methoxy-[[4[5-(trifluoromethyl)-1,2,4-oxadiazol-3-yl]phenyl]methyl]amino]-2-oxo-acetate]
≥ 80%: pest or weed control at 200 ppm [1] | pest or weed control at 200 ppm [2] | inhibition at 20 ppm [3]

CCOC(=O)C(=O)N(Cc1ccc(-c2noc(C(F)(F)F)n2)cc1)OC [Compound 3.10, ethyl 2-[methoxy-[[4-[5-(trifluoromethyl)-1,2,4-oxadiazol-3-yl]phenyl]methyl]amino]-2-oxo-acetate]
≥ 80%: pest or weed control at 200 ppm [1] | pest or weed control at 200 ppm [2] | inhibition at 20 ppm [3]

CC(C)NC(=O)C(=O)NCc1ccc(-c2noc(C(F)(F)F)n2)cc1 [Compound 4.46, N′-isopropyl-N-[[4-[5-(trifluoromethyl)-1,2,4-oxadiazol-3-yl]phenyl]methyl] oxamide]
≥ 80%: pest or weed control at 200 ppm [1] | pest or weed control at 200 ppm [2] | inhibition at 20 ppm [3]

CCONC(=O)C(=O)N(Cc1ccc(-c2noc(C(F)(F)F)n2)cc1)OC [Compound 4.74, N-ethoxy-N′-methoxy-N′-[[4-[5-(trifluoromethyl)-1,2,4-oxadiazol-3-yl]phenyl]methyl] oxamide]
≥ 80%: pest or weed control at 200 ppm [1] | pest or weed control at 200 ppm [2] | inhibition at 20 ppm [3]

COC(CN(C)C(=O)C(=O)Nc1ccc(-c2noc(C(F)(F)F)n2)cc1)OC [Compound 4.21, N′-(2,2-dimethoxyethyl)-N'-methyl-N-[4-[5-(trifluoromethyl)-1,2,4-oxadiazol-3-yl]phenyl] oxamide]
≥ 80%: pest or weed control at 200 ppm [1] | pest or weed control at 200 ppm [2] | inhibition at 20 ppm [3]

CON(Cc1ccc(-c2noc(C(F)(F)F)n2)cc1)C(=O)C(=O)NC1CC1 [Compound 4.68, N-cyclopropyl-N′-methoxy-N′-[[4-[5-(trifluoromethyl)-1,2,4-oxadiazol-3-yl]phenyl]methyl] oxamide]
≥ 80%: pest or weed control at 200 ppm [1] | pest or weed control at 200 ppm [2] | inhibition at 20 ppm [3]

CCCNC(=O)C(=O)N(Cc1ccc(-c2noc(C(F)(F)F)n2)cc1)OC [Compound 4.77, N′-methoxy-N-propyl-N′-[[4-[5-(trifluoromethyl)-1,2,4-oxadiazol-3-yl]phenyl]methyl] oxamide]
≥ 80%: pest or weed control at 200 ppm [1] | pest or weed control at 200 ppm [2] | inhibition at 20 ppm [3]

CC(=O)C(=O)NCc1ccc(-c2noc(C(F)(F)F)n2)c(F)c1 [Compound 1.25, N-[[3-fluoro-4-[5-(trifluoromethyl)-1,2,4-oxadiazol-3-yl]phenyl]methyl]-2-oxo-propanamide]
≥ 80%: pest or weed control at 200 ppm [1] | pest or weed control at 200 ppm [2] | inhibition at 20 ppm [3]

CCNC(=O)C(=O)N(Cc1ccc(-c2noc(C(F)(F)F)n2)cc1)OC [Compound 4.66, N-ethyl-N′-methoxy-N′-[[4-[5-(trifluoromethyl)-1,2,4-oxadiazol-3-yl]phenyl]methyl] oxamide]
≥ 80%: pest or weed control at 200 ppm [1] | pest or weed control at 200 ppm [2] | inhibition at 20 ppm [3]

CON(Cc1ccc(-c2noc(C(F)(F)F)n2)cc1)C(=O)C(=O)NC(C)(C)C [Compound 4.75, N-tert-butyl-N′-methoxy-N′-[[4-[5-(trifluoromethyl)-1,2,4-oxadiazol-3-yl]phenyl]methyl] oxamide]
≥ 80%: pest or weed control at 200 ppm [1] | pest or weed control at 200 ppm [2] | inhibition at 20 ppm [3]

CON(C)C(=O)C(=O)NCc1ccc(-c2noc(C(F)(F)F)n2)cc1 [Compound 4.48, N′-methoxy-N′-methyl-N-[[4-[5-(trifluoromethyl)-1,2,4-oxadiazol-3-yl]phenyl]methyl] oxamide]
≥ 80%: pest or weed control at 200 ppm [1] | pest or weed control at 200 ppm [2] | inhibition at 20 ppm [3]

CON(Cc1ccc(-c2noc(C(F)(F)F)n2)cc1)C(=O)C(=O)OC1COC1 [Compound 3.3, oxetan-3-yl 2-[methoxy-[[4-[5-(trifluoromethyl)-1,2,4-oxadiazol-3-yl]phenyl]methyl]amino]-2-oxo-acetate]
≥ 80%: pest or weed control at 200 ppm [1] | pest or weed control at 200 ppm [2] | inhibition at 20 ppm [3]

CNC(=O)C(=O)N(Cc1ccc(-c2noc(C(F)(F)F)n2)cc1)C1CC1 [Compound 4.100, N′-cyclopropyl-N-methyl-N′-[[4-[5-(trifluoromethyl)-1,2,4-oxadiazol-3-yl]phenyl]methyl] oxamide]
≥ 80%: pest or weed control at 200 ppm [1] | pest or weed control at 200 ppm [2] | inhibition at 20 ppm [3]

CCC(=O)C(=O)NCc1ccc(-c2noc(C(F)(F)F)n2)cc1C [Compound 1.85, N-[[2-methyl-4-[5-(trifluoromethyl)-1,2,4-oxadiazol-3-yl]phenyl]methyl]-2-oxo-butanamide]
≥ 80%: pest or weed control at 200 ppm [1] | pest or weed control at 200 ppm [2] | inhibition at 20 ppm [3]

CONC(=O)C(=O)N(Cc1ccc(-c2noc(C(F)(F)F)n2)cc1)C1CC1 [Compound 4.103, N′-cyclopropyl-N-methoxy-N′-[[4-[5-(trifluoromethyl)-1,2,4-oxadiazol-3-yl]phenyl]methyl] oxamide]
≥ 80%: pest or weed control at 200 ppm [1] | pest or weed control at 200 ppm [2] | inhibition at 20 ppm [3]

CON(Cc1ccc(-c2noc(C(F)(F)F)n2)cc1)C(=O)C(=O)NC1CCC1 [Compound 4.72, N-cyclobutyl-N′-methoxy-N′-[[4-[5-(trifluoromethyl)-1,2,4-oxadiazol-3-yl]phenyl]methyl] oxamide]
≥ 80%: pest or weed control at 200 ppm [1] | pest or weed control at 200 ppm [2] | inhibition at 20 ppm [3]

CCCONC(=O)C(=O)NCc1ccc(-c2noc(C(F)(F)F)n2)cc1 [Compound 4.42, N′-propoxy-N-[[4-[5-(trifluoromethyl)-1,2,4-oxadiazol-3-yl]phenyl]methyl] oxamide]
≥ 80%: pest or weed control at 200 ppm [1] | pest or weed control at 200 ppm [2] | inhibition at 20 ppm [3]

NC(=O)C(=O)N(Cc1ccc(-c2noc(C(F)(F)F)n2)cc1)CC1CCCO1 (stereo not drawn) [Compound 4.14, N′-(tetrahydrofuran-2-ylmethyl)-N′-[[4-[5-(trifluoromethyl)-1,2,4-oxadiazol-3-yl]phenyl]methyl] oxamide]
≥ 80%: pest or weed control at 200 ppm [1] | pest or weed control at 200 ppm [2] | inhibition at 20 ppm [3]

CON(Cc1ccc(-c2noc(C(F)(F)F)n2)cc1)C(=O)C(=O)N1CCOCC1 [Compound 4.80, N-methoxy-2-morpholino-2-oxo-N-[[4-[5-(trifluoromethyl)-1,2,4-oxadiazol-3-yl]phenyl]methyl] acetamide]
≥ 80%: pest or weed control at 200 ppm [1] | pest or weed control at 200 ppm [2] | inhibition at 20 ppm [3]

CCCC(=O)C(=O)N(CCOC)Cc1ccc(-c2noc(C(F)(F)F)n2)cc1 [Compound 1.9, N-(2-methoxyethyl)-2-oxo-N-[[4-[5-(trifluoromethyl)-1,2,4-oxadiazol-3-yl]phenyl]methyl]pentanamide]
≥ 80%: pest or weed control at 200 ppm [1] | pest or weed control at 200 ppm [2] | inhibition at 20 ppm [3]

CCCC(=O)C(=O)N(Cc1ccc(-c2noc(C(F)(F)F)n2)cc1)Cc1ccco1 [Compound 1.15, N-(2-furylmethyl)-2-oxo-N-[[4-[5-(trifluoromethyl)-1,2,4-oxadiazol-3-yl]phenyl]methyl]pentanamide]
≥ 80%: pest or weed control at 200 ppm [1] | pest or weed control at 200 ppm [2] | inhibition at 20 ppm [3]
